The record followed here is patent US20230391781A1, “MALT1 MODULATORS AND USES THEREOF” (Rheos Medicines, Inc., priority 2020, published 2023).

What is called pIC50 is the IC50 on a negative log10 scale, so that one unit is a factor of ten.

Test [1] concerns IL-2 in Jurkat (ATCC, clone E6.1) cells stimulated with anti-CD3/28/2. Put plainly: Jurkat IL-2 Assay. Type of test: cell-based. The settings on record: Homo sapiens; IL-2 inhibition, Jurkat cells, 30 min compound then anti-CD3/28/2 stimulation for 24 hours; mean value if tested more than once; read-out: IC50. The method, then: Inhibition was determined in a cell-based assay using Jurkat (ATCC, clone E6.1), an immortalized T-cell line, exposed to a dose response of compound and assessed for viability, and Il-2 inhibition by ELISA. Cells were cultured in RPMI/10% FBS (Invitrogen 11875093, Atlanta Biologicals S12450H), maintained below 3E6/mL and only used in assays while below passage 25. Compounds were stamped by ECHO onto 384w plates (PerkinElmer Culturplate, 6007680). The cells were plated in fresh media on top of compound and incubated for 30 minutes before stimulation with soluble anti-CD3/28/2 (Stemcell, 10970) for 24 hours. Supernatant was collected and assessed for Il-2 (MSD, 384w, L21SA-1). To assess viability of cells treated with compound, cells were lysed with CTG reagent (Promega, G7570), and measured by luminometer. […] IC50s calculated using 4-parameter fit in GraphPad Prism.
In this table, “A” indicates IC50 of less than 0.1 μM; “B” indicates IC50 from 0.1 μM up to 1 μM; and “C” indicates IC50 of greater than 1 μM. “N/A” indicates not tested. For a compound that was tested in more than one experiment, the result shown represents the mean value.

For another test, the target named is full length MALT1 (Homo sapiens (Human), UniProt Q9UDY8). Put plainly: MALT1 Biochemical Assay. The settings on record: 15 nM enzyme, 30 μM peptide substrate Ac-Leu-Arg-Ser-Arg-Rh110-dPro, 30 min pre-incubation, 60 min reaction; mean value if tested more than once. The protocol:
Inhibitor potency was evaluated by measuring enzymatic activity of full length MALT1 at varying concentrations of compound. The enzymatic assay consists of a single substrate reaction that monitors the release of a fluorescent dye upon cleavage of the peptide substrate. […] The assay buffer consists of 50 mM Hepes, pH 7.5, 0.8 M sodium citrate, 1 mM DTT, 0.004% tween-20, and 0.005% bovine serum albumin (BSA). […] The reaction was quenched after 60 minutes with the addition of iodoacetate at a final concentration of 10 mM. Total fluorescence was measured using an Envision (PerkinElmer) with fluorescence excitation at 485 nm and emission at […].
For potency determination, 1 μL of serially diluted compound (in 100% DMSO) was pre-incubated with 40 μL of enzyme for 30 minutes. The reaction was initiated with the addition of 10 μL of peptide substrate. The relative fluorescence units were transformed to percent inhibition by using 0% and 100% inhibition controls as reference. […] IC50 values were calculated by fitting the concentration-response curves to a four-parameter logistic equation in GraphPad Prism.

SMILES strings stand for the structures. pIC50: −log10 of the molar value. Where a name gives a salt, the structure may show the parent alone.

Sequence of full length MALT1 (Q9UDY8 whole entry): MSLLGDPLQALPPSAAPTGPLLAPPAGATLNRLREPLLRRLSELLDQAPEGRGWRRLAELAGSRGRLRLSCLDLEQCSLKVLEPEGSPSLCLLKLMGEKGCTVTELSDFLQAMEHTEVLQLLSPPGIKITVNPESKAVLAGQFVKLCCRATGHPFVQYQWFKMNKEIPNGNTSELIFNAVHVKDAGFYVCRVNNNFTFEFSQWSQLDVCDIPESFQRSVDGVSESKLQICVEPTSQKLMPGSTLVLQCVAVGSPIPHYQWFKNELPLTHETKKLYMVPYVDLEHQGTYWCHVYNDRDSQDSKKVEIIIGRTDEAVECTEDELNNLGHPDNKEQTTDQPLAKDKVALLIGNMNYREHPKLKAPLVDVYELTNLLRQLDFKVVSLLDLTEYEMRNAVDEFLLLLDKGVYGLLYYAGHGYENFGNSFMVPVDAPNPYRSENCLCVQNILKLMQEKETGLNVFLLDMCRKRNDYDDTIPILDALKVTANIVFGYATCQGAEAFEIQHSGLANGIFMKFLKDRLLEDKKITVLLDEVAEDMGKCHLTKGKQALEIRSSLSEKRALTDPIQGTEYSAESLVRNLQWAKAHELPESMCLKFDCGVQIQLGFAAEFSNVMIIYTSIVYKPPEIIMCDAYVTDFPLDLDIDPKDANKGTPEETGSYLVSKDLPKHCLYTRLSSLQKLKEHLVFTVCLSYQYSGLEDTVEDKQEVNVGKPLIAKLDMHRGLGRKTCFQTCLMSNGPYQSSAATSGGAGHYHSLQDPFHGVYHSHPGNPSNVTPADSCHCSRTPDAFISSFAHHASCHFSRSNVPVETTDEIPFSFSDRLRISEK

For `CO[C@@H](C)c1c(Nc2ccc([C@H](N(C)C(=O)[C@H]3CC[C@H](OC)CC3)C(F)(F)F)cc2)cnc2nc(Cl)nn12` [Compound 1.14, (1r,4S)—N—((S)-1-(4-((2-chloro-7-((S)-1-methoxyethyl)-[1,2,4]triazolo[1,5-a]pyrimidin-6-yl)amino)phenyl)-2,2,2-trifluoroethyl)-4-methoxy-N-methylcyclohexane-1-carboxamide], the negative-log IC50 (pIC50) in test [1] was 6.00 to 7.00; against full length MALT1, more than 7.00.

As for `CO[C@@H](C)c1c(Nc2ccc([C@H](N(C)C(=O)C3CCCN(C)C3)C(F)(F)F)cc2)cnc2nc(Cl)nn12` (stereo partly drawn) [Compound 5.2, N—((S)-1-(4-((2-chloro-7-((S)-1-methoxyethyl)-[1,2,4]triazolo[1,5-a]pyrimidin-6-yl)amino)phenyl)-2,2,2-trifluoroethyl)-N,1-dimethylpiperidine-3-carboxamide], the pIC50 is less than 6.00 in test [1] and 6.00 to 7.00 against full length MALT1.

Consider `CO[C@@H](C)c1c(Nc2ccc([C@H](N(C)C(=O)C3CCCN(S(C)(=O)=O)C3)C(F)(F)F)cc2)cnc2nc(Cl)nn12` (stereo partly drawn) [Compound 3.7, N-[(1S)-1-[4-({2-chloro-7-[(1S)-1-methoxyethyl]-[1,2,4]triazolo[1,5-a]pyrimidin-6-yl}amino)phenyl]-2,2,2-trifluoroethyl]-1-methanesulfonyl-N-methylpiperidine-3-carboxamide], for which the pIC50 was less than 6.00 in test [1] and 6.00 to 7.00 on full length MALT1.

For `CO[C@@H](C)c1c(Nc2ccc(C(C)N(C)C(C)=O)cc2)cnc2nc(Cl)nn12` (stereo partly drawn) [Compound 1.24, N-{1-[4-({2-chloro-7-[(1S)-1-methoxyethyl]-[1,2,4]triazolo[1,5-a]pyrimidin-6-yl}amino)phenyl]ethyl}-N-methylacetamide], the pIC50 (in test [1]; against full length MALT1) was less than 6.00 each time.

For the compound `CO[C@@H](C)c1c(Nc2ccc([C@H](N(C)C(=O)C3CCN(C(C)=O)C3)C(F)(F)F)cc2)cnc2nc(Cl)nn12` (stereo partly drawn) [Compound 3.8, 1-acetyl-N-[(1S)-1-[4-({2-chloro-7-[(1S)-1-methoxyethyl]-[1,2,4]triazolo[1,5-a]pyrimidin-6-yl}amino)phenyl]-2,2,2-trifluoroethyl]-N-methylpyrrolidine-3-carboxamide], the values for the pIC50 (in test [1]; against full length MALT1) were less than 6.00 and 6.00 to 7.00, respectively.

Regarding `CO[C@@H](C)c1c(Nc2ccc([C@H](N(C)C(=O)C3CCCN(C(C)=O)C3)C(F)(F)F)cc2)cnc2nc(Cl)nn12` (stereo partly drawn) [Compound 3.5, 1-acetyl-N-[(1S)-1-[4-({2-chloro-7-[(1S)-1-methoxyethyl]-[1,2,4]triazolo[1,5-a]pyrimidin-6-yl}amino)phenyl]-2,2,2-trifluoroethyl]-N-methylpiperidine-3-carboxamide], the pIC50 was 6.00 to 7.00 in test [1] and more than 7.00 against full length MALT1.

For `CO[C@@H](C)c1c(Nc2ccc([C@H](N(C)C(=O)C3CCN(C)C3)C(F)(F)F)cc2)cnc2nc(Cl)nn12` (stereo partly drawn) [Compound 5.3, N-[(1S)-1-[4-({2-chloro-7-[(1S)-1-methoxyethyl]-[1,2,4]triazolo[1,5-a]pyrimidin-6-yl}amino)phenyl]-2,2,2-trifluoroethyl]-N,1-dimethylpyrrolidine-3-carboxamide hydrochloride], the figures for the pIC50 (in test [1]; against full length MALT1) were less than 6.00 and 6.00 to 7.00, respectively.

On to `CO[C@@H](C)c1c(Nc2ccc([C@H](N(C)C(=O)C3CCCN(C(=O)C4CC4)C3)C(F)(F)F)cc2)cnc2nc(Cl)nn12` (stereo partly drawn) [Compound 4.2, N-[(1S)-1-[4-({2-chloro-7-[(1S)-1-methoxyethyl]-[1,2,4]triazolo[1,5-a]pyrimidin-6-yl}amino)phenyl]-2,2,2-trifluoroethyl]-1-cyclopropanecarbonyl-N-methylpiperidine-3-carboxamide], for which the negative logarithm of the IC50 (pIC50) (in test [1]; against full length MALT1) was 6.00 to 7.00 throughout.

As for `CO[C@@H](C)c1c(Nc2ccc([C@H](N(C)C(=O)C3CCS(=O)(=O)CC3)C(F)(F)F)c(C)c2)cnc2nc(Cl)nn12` [Compound 1.30, N-[(1S)-1-[4-({2-chloro-7-[(1S)-1-methoxyethyl]-[1,2,4]triazolo[1,5-a]pyrimidin-6-yl}amino)-2-methylphenyl]-2,2,2-trifluoroethyl]-N-methyl-1,1-dioxo-1λ^6-thiane-4-carboxamide], the pIC50 in test [1] was less than 6.00; at full length MALT1, 6.00 to 7.00.

On to `CO[C@H](C)c1c(Nc2ccc([C@H](N(C)C(=O)C3CCS(=O)(=O)CC3)C(F)(F)F)cc2)cnc2nc(Cl)nn12` [Compound 10.1, N—((S)-1-(4-((2-chloro-7-((R)-1-methoxyethyl)-[1,2,4]triazolo[1,5-a]pyrimidin-6-yl)amino)phenyl)-2,2,2-trifluoroethyl)-N-methyltetrahydro-2H-thiopyran-4-carboxamide 1,1-dioxide], for which the pIC50 (in test [1]; at full length MALT1) was 6.00 to 7.00 throughout.

For the compound `CO[C@@H](C)c1c(Nc2ccc([C@H](N(C)C(=O)C3CCC4(CC3)OCCO4)C(F)(F)F)cc2)cnc2nc(Cl)nn12` [Compound 1.7, N-[(1S)-1-[4-({2-chloro-7-[(1S)-1-methoxyethyl]-[1,2,4]triazolo[1,5-a]pyrimidin-6-yl}amino)phenyl]-2,2,2-trifluoroethyl]-N-methyl-1,4-dioxaspiro[4.5]decane-8-carboxamide], the pIC50 is 6.00 to 7.00 in test [1] and more than 7.00 at full length MALT1.

As to `COC(=O)NCC1CCC(C(=O)N(C)[C@@H](c2ccc(Nc3cnc4nc(Cl)nn4c3[C@H](C)OC)cc2)C(F)(F)F)CC1` (stereo partly drawn) [Compound 3.12, methyl N-[(4-{[(1S)-1-[4-({2-chloro-7-[(1S)-1-methoxyethyl]-[1,2,4]triazolo[1,5-a]pyrimidin-6-yl}amino)phenyl]-2,2,2-trifluoroethyl](methyl)carbamoyl}cyclohexyl)methyl]carbamate], the pIC50 in test [1] was 6.00 to 7.00; at full length MALT1, more than 7.00.

`CO[C@@H](C)c1c(Nc2ccc([C@H](N(C)C(=O)[C@H]3CC[C@H](O)CC3)C(F)(F)F)cc2)cnc2nc(Cl)nn12` [Compound 6.1, (1r,4S)—N—((S)-1-(4-((2-chloro-7-((S)-1-methoxyethyl)-[1,2,4]triazolo[1,5-a]pyrimidin-6-yl)amino)phenyl)-2,2,2-trifluoroethyl)-4-hydroxy-N-methylcyclohexane-1-carboxamide]: the pIC50 in test [1] is 6.00 to 7.00; against full length MALT1 it was more than 7.00.

For `CO[C@@H](C)c1c(Nc2ccc(C(C)N(C)C(=O)C3CCCC3)cc2)cnc2nc(Cl)nn12` (stereo partly drawn) [Compound 1.22, N-{1-[4-({2-chloro-7-[(1S)-1-methoxyethyl]-[1,2,4]triazolo[1,5-a]pyrimidin-6-yl}amino)phenyl]ethyl}-N-methylcyclopentanecarboxamide], the pIC50 (in test [1]; against full length MALT1) was less than 6.00 in each case.

For the compound `CNC(=O)N1CCC(C(=O)N(C)[C@@H](c2ccc(Nc3cnc4nc(Cl)nn4c3[C@H](C)OC)cc2)C(F)(F)F)C1` (stereo partly drawn) [Compound 3.9, N3-[(1S)-1-[4-({2-chloro-7-[(1S)-1-methoxyethyl]-[1,2,4]triazolo[1,5-a]pyrimidin-6-yl}amino)phenyl]-2,2,2-trifluoroethyl]-N1,N3-dimethylpyrrolidine-1,3-dicarboxamide], the values for the pIC50 (in test [1]; against full length MALT1) were 6.00 to 7.00 and more than 7.00, respectively.

In the case of `CO[C@@H](C)c1c(Nc2ccc([C@H](N(C)C(=O)C3CCC(CNC(C)=O)CC3)C(F)(F)F)cc2)cnc2nc(Cl)nn12` (stereo partly drawn) [Compound 3.11, N-[(1S)-1-[4-({2-chloro-7-[(1S)-1-methoxyethyl]-[1,2,4]triazolo[1,5-a]pyrimidin-6-yl}amino)phenyl]-2,2,2-trifluoroethyl]-4-(acetamidomethyl)-N-methylcyclohexane-1-carboxamide], the pIC50 in test [1] is 6.00 to 7.00; at full length MALT1, more than 7.00.

In the case of `CO[C@@H](C)c1c(Nc2ccc([C@H](N(C)C(=O)C3CCN(C(=O)OC(C)(C)C)C3)C(F)(F)F)cc2)cnc2nc(Cl)nn12` (stereo partly drawn) [Compound 1.12, Tert-butyl 3-{[(1S)-1-[4-({2-chloro-7-[(1S)-1-methoxyethyl]-[1,2,4]triazolo[1,5-a]pyrimidin-6-yl}amino)phenyl]-2,2,2-trifluoroethyl](methyl)carbamoyl}pyrrolidine-1-carboxylate], the values for the pIC50 (in test [1]; against full length MALT1) were less than 6.00 and 6.00 to 7.00, respectively.

Take `CO[C@@H](C)c1c(Nc2ccc(C(N(C)C(C)=O)C(F)(F)F)cc2)cnc2nc(Cl)nn12` (stereo partly drawn) [Compound 1.25, N-{1-[4-({2-chloro-7-[(1S)-1-methoxyethyl]-[1,2,4]triazolo[1,5-a]pyrimidin-6-yl}amino)phenyl]-2,2,2-trifluoroethyl}-N-methylacetamide]: the pIC50 is less than 6.00 in test [1] and 6.00 to 7.00 on full length MALT1.
